In ChEMBL document CHEMBL6083236, “Identification of novel diarylpyrimidine derivatives as potent HIV-1 non-nucleoside reverse transcriptase inhibitors against wild-type and K103N mutant viruses” (Eur J Med Chem, 2024):

Legend:
[1] = test system: Human immunodeficiency virus 1; assay: Antiviral activity against HIV1 harboring E138K mutant infected in human MT4 cells assessed as reduction in virus induced cytopathic effect incubated for 5 days by Spectrophotometric based MTT assay; format: functional, organism-based; details: Human immunodeficiency virus 1, MT4, 120 h
[2] = biological target: Human immunodeficiency virus type 1 reverse transcriptase (Human immunodeficiency virus 1, UniProt Q72547); assay: Inhibition of wild type HIV1 reverse transcriptase assessed as inhibition of biotin deoxyuridine triphosphate incorporation into cDNA using DIG-labelled dNTP preincubated with compound for 1 hr followed by substrate addition in presence of biotin-labeled dNTPs by ELISA analysis
[3] = test system: Human immunodeficiency virus 1; assay: Antiviral activity against HIV1 harboring Y181C mutant infected in human MT4 cells assessed as reduction in virus induced cytopathic effect incubated for 5 days by Spectrophotometric based MTT assay; format: functional, organism-based; details: Human immunodeficiency virus 1, MT4, 120 h
[4] = test system: Human immunodeficiency virus 1; assay: Antiviral activity against HIV1 harboring Y188L mutant infected in human MT4 cells assessed as reduction in virus induced cytopathic effect incubated for 5 days by Spectrophotometric based MTT assay; format: functional, organism-based; details: Human immunodeficiency virus 1, MT4, 120 h
[5] = test system: Human immunodeficiency virus 1; assay: Antiviral activity against HIV1 harboring F227L/V106A mutant infected in human MT4 cells assessed as reduction in virus induced cytopathic effect incubated for 5 days by Spectrophotometric based MTT assay; format: functional, organism-based; details: Human immunodeficiency virus 1, MT4, 120 h
[6] = test system: Human immunodeficiency virus 1; assay: Antiviral activity against HIV1 harboring L100I mutant infected in human MT4 cells assessed as reduction in virus induced cytopathic effect incubated for 5 days by Spectrophotometric based MTT assay; format: functional, organism-based; details: Human immunodeficiency virus 1, MT4, 120 h
MT4 = assay: Cytotoxicity against human MT4 cells assessed as reduction in cell viability incubated for 5 days by Spectrophotometric based MTT assay; format: functional; details: MT4, 120 h, time 5 day
[7] = test system: Human immunodeficiency virus 1; assay: Antiviral activity against HIV1 harboring K103 N mutant infected in human MT4 cells assessed as reduction in virus induced cytopathic effect incubated for 5 days by Spectrophotometric based MTT assay; format: functional, organism-based; details: Human immunodeficiency virus 1, MT4, 120 h
[8] = Selectivity index, ratio of CC50 for cytotoxicity against human MT4 cells to EC50 for antiviral activity against wild type HIV1 IIIB infected in human MT4 cells; details: MT4 cells
[9] = test system: Human immunodeficiency virus 1; assay: Antiviral activity against wild type HIV1 IIIB infected in human MT4 cells assessed as reduction in virus induced cytopathic effect incubated for 5 days by Spectrophotometric based MTT assay; format: functional, organism-based; details: Human immunodeficiency virus 1, IIIB, MT4, 120 h
[10] = Selectivity index, ratio of CC50 for cytotoxicity against human MT4 cells to EC50 for antiviral activity against HIV1 RES056 mutant infected in human MT4 cells; details: MT4 cells
[11] = test system: Human immunodeficiency virus 1; assay: Antiviral activity against HIV1 harboring RES056 mutant infected in human MT4 cells assessed as reduction in virus induced cytopathic effect incubated for 5 days by Spectrophotometric based MTT assay; format: functional, organism-based; details: Human immunodeficiency virus 1, RES056, MT4, 120 h

Compound | EC50 [1] | IC50 [2] | EC50 [3] | EC50 [4] | EC50 [5] | EC50 [6] | CC50 (MT4) | EC50 [7] | selectivity ratio [8] | EC50 [9] | selectivity ratio [10] | EC50 [11]
Cc1cc(/C=C/C#N)cc(C)c1Oc1ccnc(Nc2ccc(N3CCN(S(C)(=O)=O)C3=O)c(C#N)c2)n1 | 38 nM | 240 nM | 14 nM | 1770 nM | 110 nM | 6 nM | 35300 nM | 2 nM | 29900 | 1 nM | 192 | 180 nM
Cc1cc(/C=C/C#N)cc(C)c1Oc1ccnc(Nc2ccc(N3CCN(S(C)(=O)=O)CC3=O)c(C#N)c2)n1 | 94 nM |  | 310 nM | > 25600 nM | 280 nM | 100 nM | 25600 nM | 5 nM | 5910 | 4 nM | 17 | 1520 nM
Cc1cc(/C=C/C#N)cc(C)c1Oc1ccnc(Nc2ccc(N3CCS(=O)(=O)CC3)c(C#N)c2)n1 | 9 nM | 160 nM | 12 nM | > 58300 nM | 58 nM | 4 nM | 58200 nM | 2 nM |  | 2 nM |  | 260 nM
Cc1cc(/C=C/C#N)cc(C)c1Oc1ccnc(Nc2ccc(N3CC[S+]([O-])CC3)c(C#N)c2)n1 | 26 nM |  | 46 nM | > 97800 nM | 190 nM | 22 nM | 97800 nM | 4 nM | 19300 | 5 nM | 45 | 2190 nM
Cc1cc(/C=C/C#N)cc(C)c1Oc1ccnc(Nc2ccc(N3CC(F)C3)c(C#N)c2)n1 | 63 nM |  | 49 nM | > 170000 nM | 330 nM | 48 nM | 170000 nM | 10 nM | 20000 | 9 nM | 328 | 520 nM
CC(=O)C1CCN(c2ccc(Nc3nccc(Oc4c(C)cc(/C=C/C#N)cc4C)n3)cc2C#N)CC1 | 110 nM |  | 150 nM | > 5120 nM | 75 nM | 65 nM | 5120 nM | 12 nM | 1070 | 5 nM | 3 | 1490 nM
Cc1cc(/C=C/C#N)cc(C)c1Oc1ccnc(Nc2ccc(N3CCC(C#N)CC3)c(C#N)c2)n1 | 110 nM |  | 130 nM | > 42100 nM | 290 nM | 230 nM | > 42100 nM | 13 nM | > 4560 | 9 nM | > 30 | 1390 nM
Cc1cc(/C=C/C#N)cc(C)c1Oc1ccnc(Nc2ccc(N3CCOCC3=O)c(C#N)c2)n1 | 15 nM |  | 23 nM | 2600 nM | 330 nM | 13 nM | 26600 nM | 4 nM | 9540 | 3 nM | 191 | 140 nM
Cc1cc(/C=C/C#N)cc(C)c1Oc1ccnc(Nc2ccc(N3CCS(=O)(=O)CC3=O)c(C#N)c2)n1 | 130 nM |  | 140 nM | 18400 nM | 250 nM | 83 nM | 34000 nM | 3 nM | 8130 | 4 nM | 37 | 910 nM
CSC1CN(c2ccc(Nc3nccc(Oc4c(C)cc(/C=C/C#N)cc4C)n3)cc2C#N)C1 | 39 nM |  | 53 nM | > 267000 nM | 150 nM | 18 nM | > 267000 nM | 6 nM | > 45200 | 6 nM | > 99 | 2710 nM
Cc1cc(/C=C/C#N)cc(C)c1Oc1ccnc(Nc2ccc(N3CCN(S(N)(=O)=O)CC3)c(C#N)c2)n1 | 29 nM | 130 nM | 32 nM | 1170 nM | 13 nM | 7 nM | 5880 nM | 3 nM | 1540 | 4 nM | 26 | 230 nM
Cc1cc(/C=C/C#N)cc(C)c1Oc1ccnc(Nc2ccc(N3CCN(C=O)CC3)c(C#N)c2)n1 | 48 nM |  | 53 nM | 2980 nM | 98 nM | 16 nM | 15900 nM | 20 nM | 4350 | 4 nM | 17 | 930 nM
CC(=O)N1CCN(c2ccc(Nc3nccc(Oc4c(C)cc(/C=C/C#N)cc4C)n3)cc2C#N)CC1 | 30 nM |  | 65 nM | > 6640 nM | 44 nM | 62 nM | 6640 nM | 3 nM | 1280 | 5 nM | 12 | 550 nM
Cc1cc(/C=C/C#N)cc(C)c1Oc1ccnc(Nc2ccc(N3CCC(S(C)(=O)=O)CC3)c(C#N)c2)n1 | 42 nM |  | 40 nM | 2830 nM | 65 nM | 35 nM | 6440 nM | 18 nM | 725 | 9 nM | 8 | 820 nM
